Measured values reported in patent US20140142170A1, “COMPOSITION AND METHOD FOR INFLUENCING ENERGY METABOLISM AND TREATING METABOLIC AND OTHER DISORDERS” (SIRTUIN VALLEY OY, priority 2010, published 2014).
Several values for one entry are separate records, joined by “and”; a condition that tells them apart may be missing. Equal values may be shown once. Entries after “also recorded” stand apart in the source; their conditions may differ.

Columns and labels:
Assay type in all cases: cell-based
[1] = tested on: acetyl-CoA carboxylase (ACC); experiment: ACC expression, immunoblot in 3T3L1 preadipocytes; details: 100 μM, 24 hours
PGC-1α [2] = experiment: PGC-1α protein expression, immunoblot and densitometry in 3T3 L1 preadipocytes; details: 60 μM, 24 hours, control = 100%
Procedure: 3T3L1 cells were purchased from American Type Culture Collection (Manassas, Va., USA) and cultured in DMEM media containing 4.5 g/l glucose supplemented with 10% fetal bovine serum (Hyclone), 2 mM L-glutamine (Gibco), 100 U/ml penicillin, and 100 μg/ml streptomycin (Gibco). The cells were cultured at 37° C. in a humidified atmosphere with 10% CO2. […]
(§1) Protein concentrations were measured using a BCA (bicinchoninic acid) protein assay kit (Cat.#23225; Pierce, Rockford, Ill.). Twenty (20) μg/lane of total cellular protein samples containing NuPAGE LDS sample buffer (Invitrogen) and reducing agent were loaded into 4-12% NuPAGE Bis-Tris gels (Invitrogen), subjected to gel electrophoresis, and transferred to polyvinylidene fluoride membranes (Amersham). For SIRT1 proteins, membranes were blocked in 0.05% TBS-Tween with 3% milk for 1 hour, incubated overnight at +4° C. with SIRT1 primary antibodies (Cat.#07-131, Millipore). For phospho-AMPKα and AMPKα proteins, blocking was done for 1 hour in 0.1% TBS-Tween with 5% milk. The membranes were incubated overnight at +4° C. with phospho-AMPKα (Cat. #2535, Cell Signaling) and AMPKα (Cat.#2532, Cell Signaling) primary antibodies. Horseradish peroxidase-conjugated anti-rabbit antibodies (Cat. #NA934V GE Health Care, Amersham, U.K) were used as secondary antibodies. For α-tubulin (loading control), membranes were blocked in 0.05% PBS-Tween with 3% milk for 1 hour, incubated with α-tubulin (Cat.# B-5-1-2, Sigma) primary antibodies for 1 hour at room temperature and horseradish peroxidase-conjugated anti-mouse (Cat. # NA 931V GE Health Care, Amersham, U.K.) IgG antibodies were used as secondary antibodies.
(§2) The membranes were developed using chemiluminescence (ECL plus, GE Health Care), and images were captured in an Image Quant RT-ECL machine (version 1.0.1; GE Health Care). Densitometry and quantification of the bands were done by applying Quantity One software (Bio-Rad). The expression levels of the proteins were normalized to α-tubulin protein levels.
PGC-1α as an indicator of SIRT1 activity: PGC-1α has been extensively described as a master regulator of mitochondrial biogenesis. […] When SIRT1 protein expression is induced, it interacts with and deacetylates PGC-1α in an NAD-dependent manner. Thus SIRT1 acts as a modulator of PGC-1a (Rodgers J T et al, Nature 2005). The effects of resveratrol, a nonselective SIRT1 activator, were associated with an induction of genes for oxidative phosphorylation and mitochondrial biogenesis, and were largely explained by a resveratrol-mediated decrease in PGC-1α acetylation and an increase in PGC-1α activity (Lagouge M, Cell 2006). Therefore, PGC-1α protein expression serves as an indicator of SIRT1 activity.
3T3L1 cells were purchased from American Type Culture Collection (Manassas, Va., USA) and cultured in DMEM media containing 4.5 g/l glucose supplemented with 10% fetal bovine serum (Hyclone), 2 mM L-glutamine (Gibco) and 100 U/ml penicillin, 100 μg/ml streptomycin (Gibco). The cells were cultured at 37° C. in a humidified atmosphere with 10% CO2. 3T3L1 preadipocytes were plated at 1×10^5 cells/well in 6 well plates and incubated at 37° C. in a humidified atmosphere with 10% CO2. The media was removed after 24 hours and the cells were treated with 60 μM GR24 or with 60 μM 1A, 1B, 5A, 5B, 6A, or 7A and incubated for 24 hours at 37° C. in a humidified atmosphere with 10% CO2. In all experiments, the controls were treated with the same volume of DMSO as was used to dissolve compounds in compound-treated cells to show and ensure that the actual change in protein expression in different treatments was only due to the compounds […]. The media was removed, cells were washed with PBS and cell lysates were collected on ice. Proteins were extracted using RIPA buffer along with protease and phosphatase inhibitors. Lysates were centrifuged for 30 min at high speed; supernatant was collected and stored at −70° C. until further analysis.

phospho-AMPK = phospho-AMPK expression / AMPK activation, immunoblot in 3T3 L1 preadipocytes; details: 24 hours; for phospho-AMPK expression compared to control: 60 μM; for phosphorylated AMPK expression vs control: 3T3L1 preadipocytes, 100 μM
Procedure: 3T3L1 cells were purchased from American Type Culture Collection (Manassas, Va., USA) and cultured in DMEM media containing 4.5 g/l glucose supplemented with 10% fetal bovine serum (Hyclone), 2 mM L-glutamine (Gibco), 100 U/ml penicillin, and 100 μg/ml streptomycin (Gibco). The cells were cultured at 37° C. in a humidified atmosphere with 10% CO2.
The 3T3L1 cells were plated at 6×10^4 cells/well in 12 well plates and incubated at 37° C. in a humidified atmosphere with 10% CO2. […] The media was removed, cells were washed with PBS, and cell lysates were collected on ice. Proteins were extracted using RIPA buffer along with protease and phosphatase inhibitors. Lysates were centrifuged for 30 min at high speed; supernatant was collected and stored at […] until further analysis. The vehicle controls were 3T3 L1 cells without any treatment with drugs or other compounds. The drugs or compounds that were used in all the experiments were dissolved or diluted in dimethylsulfoxide (DMSO) as diluent. In all experiments, the controls were treated with the same volume of DMSO as was used to dissolve drugs or compounds in compound-treated cells to show and ensure that the actual change in protein expression in different treatments was due solely to the compounds or combination of compounds and not to the DMSO.
as §1, §2

PGC-1α [3] = experiment: PGC-1α protein expression, immunoblot and densitometry in 3T3 L1 preadipocytes; details: 3T3L1 preadipocytes, 100 μM, 24 hours

Question: For `CC1=CC(O/C=C2/C(=O)O[C@@H]3c4ccccc4C[C@H]23)OC1=O` (stereo partly drawn) [GR24], which “ACC protein expression vs control” value [1] is on record?
Answer: Its value is “down-regulated”.

Question: What about the “PGC-1α protein expression compared to control (100%)” value (PGC-1α [2]) of the same compound?
Answer: The value was 168% and 164% and 198% and 220% and 149%.

Question: And the “AMPK activation (pAMPK/AMPK/α-tubulin ratio) compared to control” value (phospho-AMPK; 3T3 L1 preadipocytes, 60 μM each compound)?
Answer: The value was “no activation”.

Question: What about the “phospho-AMPK expression compared to control” value (phospho-AMPK; 3T3 L1 preadipocytes) of the same compound?
Answer: The value was “significant increase in expression with resveratrol but not with GR24; also recorded: did not”.

Question: And the “phospho-AMPK expression compared to control” value (phospho-AMPK; 3T3 L1 preadipocytes, listed as GR 24)?
Answer: The value was “significant increase in expression with resveratrol but not with GR 24”.

Question: What about the “phosphorylated AMPK expression vs control” value (phospho-AMPK) of the same compound?
Answer: Its value is “down-regulated”.

Question: And the “phosphorylated AMPK expression vs control” value (phospho-AMPK; listed as GR 24)?
Answer: Its value is “down-regulation”.

Question: And the “PGC-1α expression vs control” value (PGC-1α [3])?
Answer: Its value is “significantly increased”.

Question: What about the “PGC-1α expression vs control” value (PGC-1α [3]; listed as GR 24) of the same compound?
Answer: Its value is “activation”.
